Data published in article PMC11620503 (Antimicrobial Agents and Chemotherapy, 2024).
≈ marks a conversion by molar mass, not a printed value. Where two headings read alike, the source gives them in different places.

Experiments:
[1] = test system: Streptococcus mutans GTC218; assay: MIC, reference strains of aerobic bacteria; format: cell-based
[2] = test system: Klebsiella pneumoniae ATCC 700603; assay: MIC, reference strains of aerobic bacteria; format: cell-based; settings: ATCC700603
[3] = test system: Streptococcus agalactiae ATCC 13813; assay: MIC, reference strains of aerobic bacteria; format: cell-based; settings: ATCC13813
[4] = test system: Escherichia coli ATCC 25922; assay: MIC, reference strains of aerobic bacteria; format: cell-based; settings: ATCC25922
[5] = test system: Cefepime/taniborbactam-nonsusceptible Enterobacterales with metallo-carbapenemases (25); assay: MIC, broth microdilution; format: cell-based; settings: CDC AR Bank
[6] = test system: Enterococcus faecalis ATCC 29212; assay: MIC, reference strains of aerobic bacteria; format: cell-based; settings: ATCC29212
[7] = test system: MEM-, imipenem/relebactam-, and ceftolozane/tazobactam-nonsusceptible P. aeruginosa; assay: MIC, broth microdilution; format: cell-based, Pseudomonas aeruginosa; settings: for CLSI MIC interpretation I (intermediate) / CLSI MIC interpretation R (resistant) / CLSI MIC interpretation S (susceptible): CLSI breakpoints, marked c: breakpoints for β-lactam alone; for MIC50 / MIC90: Pseudomonas aeruginosa; for MIC50 / MIC Range / MIC90: fixed concentration (μg/mL) in label; for MIC50: read-out: MIC50; for MIC90: read-out: MIC90
[8] = test system: Serratia marcescens NBRC 12648 (ATCC 14756); assay: MIC, reference strains of aerobic bacteria; format: cell-based
[9] = test system: Citrobacter freundii ATCC 8090; assay: MIC, reference strains of aerobic bacteria; format: cell-based; settings: ATCC8090
[10] = test system: 55 isolates of A. baumannii; assay: MIC, broth microdilution; format: cell-based, Acinetobacter baumannii; settings: for CLSI MIC interpretation I (intermediate) / CLSI MIC interpretation R (resistant) / CLSI MIC interpretation S (susceptible): CLSI breakpoints, marked c: breakpoints for β-lactam alone
[11] = test system: Streptococcus pseudoporcinus ATCC BAA-1381; assay: MIC, reference strains of aerobic bacteria; format: cell-based; settings: ATCCBAA1381
[12] = test system: Streptococcus pyogenes ATCC 12344; assay: MIC, reference strains of aerobic bacteria; format: cell-based; settings: ATCC12344
[13] = test system: Enterobacter hormaechei ATCC BAA-2082; assay: MIC, reference strains of aerobic bacteria; format: cell-based; settings: ATCCBAA2082
[14] = test system: Micrococcus luteus ATCC 9341; assay: MIC, reference strains of aerobic bacteria; format: cell-based; settings: ATCC9341
[15] = test system: Proteus vulgaris ATCC 6380; assay: MIC, reference strains of aerobic bacteria; format: cell-based; settings: ATCC6380
[16] = test system: P. aeruginosa CDC-110 (VIM-2); assay: MIC, broth microdilution; format: cell-based; settings: Pseudomonas aeruginosa, agent alone
[17] = test system: Pseudomonas aeruginosa ATCC 27853; assay: MIC, reference strains of aerobic bacteria; format: cell-based; settings: ATCC27853
[18] = test system: E. coli CDC-137 (NDM-6), PBP3 mutations; assay: MIC, broth microdilution; format: cell-based; settings: Escherichia coli, fixed BLI concentration (μg/mL) in parentheses in label
[19] = test system: Staphylococcus aureus ATCC 6538P/methicillin-sensitive; assay: MIC, reference strains of aerobic bacteria; format: cell-based; settings: ATCC6538P
[20] = test system: Klebsiella pneumoniae ATCC BAA-2344 (KPC-2); assay: MIC, broth microdilution; format: cell-based; settings: K. pneumoniae ATCC BAA-2344, agent alone
[21] = test system: P. aeruginosa CDC-110 (VIM-2); assay: Lethal mouse model of systemic infection; settings: Pseudomonas aeruginosa, in Mus musculus, sc, read-out: ED50 of MEM (95% confidence intervals)
[22] = test system: serine-carbapenemase-producing isolates (Enterobacterales); assay: MIC, broth microdilution; format: cell-based; settings: for CLSI MIC interpretation R (resistant) / CLSI MIC interpretation S (susceptible) / CLSI MIC interpretation I (intermediate): CLSI breakpoints, marked c: breakpoints for β-lactam alone
[23] = test system: E. coli CDC-150 (NDM-5), PBP3 mutations; assay: MIC, broth microdilution; format: cell-based; settings: Escherichia coli, fixed BLI concentration (μg/mL) in parentheses in label
[24] = test system: isolates of E. coli with NDM and PBP3 mutations; assay: MIC, broth microdilution; format: cell-based; settings: Escherichia coli, read-out: median MICs
[25] = test system: Bulleidia extructa KUB3013; assay: MIC, agar dilution, reference strains of anaerobic bacteria; format: cell-based
[26] = Free concentration of KSP-1007 at the dose effective in the infection models; format: in vivo, mouse; settings: 30 mg/kg of KSP-1007; data not shown
CTX-M-15 = CTX-M-15 (Escherichia coli, UniProt Q9EXV5); assay: Ki app determination (Waley's method)
Chain of CTX-M-15 (Q9EXV5 29-291, species assumed): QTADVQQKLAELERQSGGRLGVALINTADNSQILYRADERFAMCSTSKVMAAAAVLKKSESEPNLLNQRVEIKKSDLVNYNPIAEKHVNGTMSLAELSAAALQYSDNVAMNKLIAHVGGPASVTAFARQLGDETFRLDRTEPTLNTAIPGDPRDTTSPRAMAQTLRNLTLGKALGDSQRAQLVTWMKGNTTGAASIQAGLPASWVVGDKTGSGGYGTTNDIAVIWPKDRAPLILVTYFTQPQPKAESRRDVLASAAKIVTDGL

[27] = test system: Peptoniphilus asaccharolyticus ATCC 14963; assay: MIC, agar dilution, reference strains of anaerobic bacteria; format: cell-based; settings: ATCC14963
Olsenella uli KUB3012 = assay: as above; format: cell-based
[28] = test system: Bacteroides fragilis ATCC 25285; assay: as above; format: cell-based; settings: ATCC25285
NDM-1 = NDM-1 (Klebsiella pneumoniae, UniProt C7C422); assay: Ki app determination (Waley's method)
Chain of NDM-1 (C7C422 29-270, looked up, species assumed): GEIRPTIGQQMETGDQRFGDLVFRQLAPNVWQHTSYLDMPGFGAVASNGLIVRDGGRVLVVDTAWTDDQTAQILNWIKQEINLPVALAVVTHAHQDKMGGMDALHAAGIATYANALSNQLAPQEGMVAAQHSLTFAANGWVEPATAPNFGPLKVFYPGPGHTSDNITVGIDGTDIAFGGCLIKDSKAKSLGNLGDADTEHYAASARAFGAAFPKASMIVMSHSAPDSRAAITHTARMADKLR

[29] = test system: Actinomyces odontolyticus ATCC 17929; assay: MIC, agar dilution, reference strains of anaerobic bacteria; format: cell-based; settings: Schaalia odontolytica, ATCC17929
[30] = CLSI breakpoints, marked c: breakpoints for β-lactam alone
[31] = fixed concentration (μg/mL) in label
[32] = Ceftolozane/tazobactam-nonsusceptible Pseudomonas aeruginosa (45)
[33] = Imipenem/relebactam-nonsusceptible Pseudomonas aeruginosa (43)
[34] = MEM-nonsusceptible Pseudomonas aeruginosa (76)
[35] = Acinetobacter baumannii (55), fixed concentration (μg/mL) in label
[36] = Enterobacterales with serine-carbapenemases (61), CDC AR Bank
[37] = Enterobacterales with serine-carbapenemases (61), CDC AR Bank, fixed concentration (μg/mL) in label
[38] = Enterobacterales with serine-carbapenemases (80), tigecycline: FDA breakpoints
[39] = Enterobacterales with serine-carbapenemases (80), fixed concentration (μg/mL) in label, read-out: MIC50
[40] = Enterobacterales with serine-carbapenemases (80), fixed concentration (μg/mL) in label, read-out: MIC90

SMILES: C[C@@H](O)[C@H]1C(=O)N2C(C(=O)O)=C(S[C@@H]3CN[C@H](C(=O)N(C)C)C3)[C@H](C)[C@H]12 [MEM, meropenem]
- MIC [1]: ≤ 0.03 µg/mL
- MIC [2]: ≤ 0.03 µg/mL
- MIC [3]: ≤ 0.03 µg/mL
- MIC [4]: ≤ 0.03 µg/mL
- CLSI MIC interpretation I (intermediate) [5, 30]: 0%
- CLSI MIC interpretation R (resistant) [5, 30]: 96%
- CLSI MIC interpretation S (susceptible) [5, 30]: 4%
- MIC50 [5, 31]: 32 µg/mL (≈ 83.4 µM)
- MIC90 [5, 31]: > 32 µg/mL
- MIC [6]: 1 µg/mL (≈ 2.61 µM)
- CLSI MIC interpretation I (intermediate) [7, 32]: 6.7%
- CLSI MIC interpretation R (resistant) [7, 32]: 91.1%
- CLSI MIC interpretation S (susceptible) [7, 32]: 2.2%
- CLSI MIC interpretation I (intermediate) [7, 33]: 4.7%
- CLSI MIC interpretation R (resistant) [7, 33]: 95.3%
- CLSI MIC interpretation S (susceptible) [7, 33]: 0%
- CLSI MIC interpretation I (intermediate) [7, 34]: 14.5%
- CLSI MIC interpretation R (resistant) [7, 34]: 85.5%
- CLSI MIC interpretation S (susceptible) [7, 34]: 0%
- MIC50 [7, 32]: 64 µg/mL
- MIC50 [7, 33]: 64 µg/mL
- MIC50 [7, 34]: 16 µg/mL (≈ 41.7 µM)
- MIC [8]: ≤ 0.03 µg/mL
- MIC [9]: ≤ 0.03 µg/mL
- CLSI MIC interpretation I (intermediate) ([10]; Acinetobacter baumannii (55)): 5.5%
- CLSI MIC interpretation R (resistant) ([10]; Acinetobacter baumannii (55)): 89.1%
- CLSI MIC interpretation S (susceptible) ([10]; Acinetobacter baumannii (55)): 5.5%
- MIC50 [10, 35]: 32 µg/mL (≈ 83.4 µM)
- MIC50 ([10]; Acinetobacter baumannii, read-out: MIC50): 32 µg/mL (≈ 83.4 µM)
- MIC [11]: ≤ 0.03 µg/mL
- MIC [12]: ≤ 0.03 µg/mL
- MIC [13]: 4 µg/mL (≈ 10.4 µM)
- MIC [14]: 0.06 µg/mL (≈ 0.156 µM)
- MIC [15]: ≤ 0.03 µg/mL
- MIC [16]: 64 µg/mL (≈ 167 µM)
- MIC [17]: 0.25 µg/mL (≈ 0.652 µM)
- MIC [18]: 32 µg/mL (≈ 83.4 µM)
- MIC [19]: 0.06 µg/mL (≈ 0.156 µM)
- MIC ([20]; Experiment 1): 16 to 32 µg/mL
- MIC ([20]; Klebsiella pneumoniae, ATCCBAA2344, Experiment 2, read-out: MIC): 16 to 32 µg/mL (≈ 41.7 to 83.4 µM)
- ED50 [21]: 218 mg/kg
- CLSI MIC interpretation R (resistant) [22, 36]: 57.4%
- CLSI MIC interpretation S (susceptible) [22, 36]: 31.1%
- MIC50 [22, 37]: 4 µg/mL (≈ 10.4 µM)
- MIC90 [22, 37]: 32 µg/mL (≈ 83.4 µM)
- CLSI MIC interpretation I (intermediate) [22, 38]: 11.3%
- CLSI MIC interpretation R (resistant) [22, 38]: 61.3%
- CLSI MIC interpretation S (susceptible) [22, 38]: 27.5%
- MIC50 [22, 39]: 4 µg/mL (≈ 10.4 µM)
- MIC90 [22, 40]: 32 µg/mL (≈ 83.4 µM)
- MIC [23]: > 32 µg/mL

SMILES: CC(C)(O/N=C(\C(=O)N[C@@H]1C(=O)N2C(C(=O)[O-])=C(C[N+]3(CCNC(=O)c4ccc(O)c(O)c4Cl)CCCC3)CS[C@H]12)c1csc(N)n1)C(=O)O [FDC, cefiderocol]
- CLSI MIC interpretation I (intermediate) [7, 32]: 0%
- CLSI MIC interpretation R (resistant) [7, 32]: 0%
- CLSI MIC interpretation S (susceptible) [7, 32]: 100%
- MIC Range [7, 32]: 0.25 to 4 µg/mL
- CLSI MIC interpretation I (intermediate) [7, 33]: 0%
- CLSI MIC interpretation R (resistant) [7, 33]: 0%
- CLSI MIC interpretation S (susceptible) [7, 33]: 100%
- MIC Range [7, 33]: 0.12 to 4 µg/mL
- CLSI MIC interpretation I (intermediate) [7, 34]: 0%
- CLSI MIC interpretation R (resistant) [7, 34]: 0%
- CLSI MIC interpretation S (susceptible) [7, 34]: 100%
- MIC Range [7, 34]: ≤0.06 to 4 µg/mL
- MIC50 [7, 32]: 0.5 µg/mL
- MIC90 [7, 32]: 2 µg/mL
- MIC50 [7, 33]: 0.5 µg/mL
- MIC90 [7, 33]: 2 µg/mL
- MIC50 [7, 34]: 0.5 µg/mL (≈ 0.665 µM)
- MIC90 [7, 34]: 2 µg/mL (≈ 2.66 µM)
- CLSI MIC interpretation I (intermediate) ([10]; Acinetobacter baumannii (55)): 3.6%
- CLSI MIC interpretation R (resistant) ([10]; Acinetobacter baumannii (55)): 1.8%
- CLSI MIC interpretation S (susceptible) ([10]; Acinetobacter baumannii (55)): 94.5%
- MIC Range [10, 35]: ≤0.06 to 16 µg/mL
- MIC50 ([10]; Acinetobacter baumannii (55), fixed concentration (μg/mL) in label, read-out: MIC50): 0.5 µg/mL (≈ 0.665 µM)
- MIC90 ([10]; Acinetobacter baumannii (55), fixed concentration (μg/mL) in label, read-out: MIC90): 4 µg/mL (≈ 5.32 µM)
- MIC [18]: 2 µg/mL (≈ 2.66 µM)
- MIC [24]: 4 µg/mL (≈ 5.32 µM)
- CLSI MIC interpretation I (intermediate) [22, 38]: 0%
- CLSI MIC interpretation R (resistant) [22, 38]: 0%
- CLSI MIC interpretation S (susceptible) [22, 38]: 100%
- MIC Range ([22]; Enterobacterales with serine-carbapenemases (80), fixed concentration (μg/mL) in label): ≤0.06 to 4 µg/mL
- MIC50 [22, 39]: 0.25 µg/mL (≈ 0.332 µM)
- MIC90 [22, 40]: 2 µg/mL (≈ 2.66 µM)
- MIC [23]: 4 µg/mL (≈ 5.32 µM)

SMILES: N[C@@H](C(=O)N1CC(Oc2ccc3c(c2C(=O)O)OB(O)CC3)C1)c1c[nH]cn1 [KSP-1007, 7-({1-[(2R)-2-amino-2-(1H-imidazol-4-yl)acetyl]azetidin-3-yl}oxy)-2-hydroxy-3,4-dihydro-2H-1,2-benzoxaborinine-8-carboxylic acid]
- MIC [25]: 32 µg/mL (≈ 82.9 µM)
- MIC [1]: 8 µg/mL (≈ 20.7 µM)
- free concentration [26]: exceeded 8 µg/mL
- Ki (CTX-M-15): 0.0664 ± 0.015 nM
- MIC [2]: > 128 µg/mL
- MIC [27]: 32 µg/mL (≈ 82.9 µM)
- MIC [3]: 4 µg/mL (≈ 10.4 µM)
- MIC (Olsenella uli KUB3012): 64 µg/mL (≈ 166 µM)
- MIC [4]: 128 µg/mL (≈ 331 µM)
- MIC [28]: 8 µg/mL (≈ 20.7 µM)
- MIC [6]: 64 µg/mL (≈ 166 µM)
- MIC [8]: > 128 µg/mL
- MIC [9]: 128 µg/mL (≈ 331 µM)
- MIC [11]: 1 µg/mL (≈ 2.59 µM)
- MIC [12]: 4 µg/mL (≈ 10.4 µM)
- Ki (NDM-1): 126 ± 58.1 nM
- MIC [13]: > 128 µg/mL
- MIC [14]: 128 µg/mL (≈ 331 µM)
- MIC [15]: > 128 µg/mL
- MIC [17]: > 128 µg/mL
- MIC [19]: 8 µg/mL (≈ 20.7 µM)
- MIC [29]: 256 µg/mL (≈ 663 µM)
